# Assay results from ChEMBL document CHEMBL5131389, “PSMA-targeted small-molecule docetaxel conjugate: Synthesis and preclinical evaluation” (Eur J Med Chem, 2022).
# Activity calls are given as the source filed them. No cut-off for these calls is given here.
# How the values were obtained:
# CWR22R [1] = assay: Effect on cell stiffness in human 22Rv1 cells assessed as increase in young's modulus at 2.7 nM measured after 1 hr by topography based scanning ion-conductance microscopic analysis; format: functional
# PC-3 = assay: Effect on cell stiffness in human PC-3 cells assessed as increase in young's modulus at 2.8 nM measured after 1 hr by topography based scanning ion-conductance microscopic analysis; format: functional
# CWR22R [2] = assay: Antitumor activity against human 22Rv1 cells xenografted in Balb/c nude mouse assessed as tumor growth inhibition at 30 mg/kg, ip administered daily for 5 days and measured at day 34 relative to control; format: functional; set-up: scale not given: the % may be the effect or the level left; conditions: time 34 day
# [3] = Toxicity in Balb/c nude mouse xenografted with human 22Rv1 cells assessed as animal death at 30 mg/kg, ip measured upto 30 days; format: organism-based, CWR22R; conditions: in vivo, 720 h, time < 30 day
# [4] = Chronic toxicity in rat assessed as reduction in number of peeping into holes at 22.5 mg/kg, iv administered as pluronic F127 formulation at 4 intervals for 21 days and observed 3 weeks post last injection; format: organism-based; conditions: in vivo, 2544 h, time 106 day
# [5] = Chronic toxicity in rat assessed as increase in relative spleen mass at 18.75 mg/kg, iv administered as pluronic F127 formulation at 4 intervals for 21 days and observed 3 weeks post last injection relative to control; format: organism-based; conditions: in vivo, 2544 h, time 106 day
# [6] = Chronic toxicity in Soviet Chinchilla rabbit assessed as increase in relative pancreas mass at 8.14 to 12.21 mg/kg, iv administered as pluronic F127 formulation at 4 intervals for 21 days and observed 3 weeks post last injection; format: organism-based, Oryctolagus cuniculus; conditions: in vivo, 2544 h, dose 8.14-12.21 mg/kg, time 106 day
smiles,measurement,setting,value
CC(=O)O[C@@]12CO[C@@H]1C[C@H](O)[C@@]1(C)C(=O)[C@H](O)C3=C(C)[C@@H](OC(=O)[C@H](OC(=O)CCCc4cn(CCCNC(=O)[C@H](Cc5ccc(O)cc5)NC(=O)[C@H](Cc5ccccc5)NC(=O)CCC(=O)NCCCCCC(=O)N(CCCC[C@H](NC(=O)N[C@@H](CCC(=O)O)C(=O)O)C(=O)O)Cc5cccc(Cl)c5)nn4)[C@@H](NC(=O)OC(C)(C)C)c4ccccc4)C[C@@](O)([C@@H](OC(=O)c4ccccc4)[C@H]21)C3(C)C,Activity,CWR22R [1],Active
same,Activity,PC-3,Active
same,Activity,CWR22R [2],80%
same,Activity,[3],Toxic
same,Activity,[4],Toxic
same,Activity,[5],Toxic
same,Activity,[6],Toxic
